Measurements published in the NIST ThermoML archive (doi:10.1016/j.fluid.2014.04.019).

Assay: xn = mol fraction of the nth substance listed
Details: 101 kPa, Liquid

OCCOCCO [diethylene glycol] + CN(C)C=O
Details | kinematic viscosity, 298.15 K [m2/s] | kinematic viscosity, 303.15 K [m2/s] | kinematic viscosity, 308.15 K [m2/s] | kinematic viscosity, 313.15 K [m2/s] | kinematic viscosity, 318.15 K [m2/s] | mass density, 298.15 K [kg/m3] | mass density, 303.15 K [kg/m3] | mass density, 308.15 K [kg/m3] | mass density, 313.15 K [kg/m3] | mass density, 318.15 K [kg/m3]
x2 = 0 | 2.76e-05 | 2.13e-05 | 1.68e-05 | 1.45e-05 | 1.12e-05 | 1113 | 1109.2 | 1106.1 | 1103 | 1099.3
x2 = 0.0714 | 1.96e-05 | 1.53e-05 | 1.19e-05 | 1.07e-05 | 8.43e-06 | 1104.1 | 1100 | 1096.7 | 1093.4 | 1089.5
x2 = 0.1393 | 1.57e-05 | 1.24e-05 | 9.67e-06 | 8.49e-06 | 6.68e-06 | 1094.9 | 1090.8 | 1087.3 | 1083.9 | 1079.8
x2 = 0.2041 | 1.26e-05 | 1.01e-05 | 8.08e-06 | 7.39e-06 | 5.77e-06 | 1085.9 | 1081.9 | 1078.2 | 1074.6 | 1070.3
x2 = 0.2683 | 1.02e-05 | 8.29e-06 | 6.7e-06 | 6.18e-06 | 4.88e-06 | 1076.7 | 1072.6 | 1068.7 | 1065.1 | 1060.7
x2 = 0.3266 | 8.33e-06 | 6.84e-06 | 5.59e-06 | 5.2e-06 | 4.16e-06 | 1068.1 | 1063.9 | 1059.9 | 1056.2 | 1051.7
x2 = 0.3834 | 6.84e-06 | 5.68e-06 | 4.69e-06 | 4.4e-06 | 3.54e-06 | 1059.4 | 1055.2 | 1051 | 1047.3 | 1042.7
x2 = 0.4384 | 5.66e-06 | 4.76e-06 | 3.98e-06 | 3.74e-06 | 3.06e-06 | 1050.9 | 1046.5 | 1042.2 | 1038.5 | 1033.9
x2 = 0.4917 | 4.71e-06 | 4e-06 | 3.38e-06 | 3.2e-06 | 2.64e-06 | 1042.3 | 1037.9 | 1033.5 | 1029.7 | 1024.9
x2 = 0.5429 | 3.94e-06 | 3.38e-06 | 2.88e-06 | 2.75e-06 | 2.29e-06 | 1033.8 | 1029.4 | 1024.8 | 1021 | 1016.2
x2 = 0.5865 | 3.4e-06 | 2.93e-06 | 2.53e-06 | 2.41e-06 | 2.03e-06 | 1026.4 | 1022 | 1017.3 | 1013.4 | 1008.6
x2 = 0.6394 | 2.83e-06 | 2.47e-06 | 2.16e-06 | 2.07e-06 | 1.76e-06 | 1017.2 | 1012.7 | 1007.9 | 1004 | 999.1
x2 = 0.6819 | 2.44e-06 | 2.15e-06 | 1.89e-06 | 1.82e-06 | 1.56e-06 | 1009.5 | 1005 | 1000.1 | 996.2 | 991.2
x2 = 0.7294 | 2.08e-06 | 1.85e-06 | 1.64e-06 | 1.59e-06 | 1.37e-06 | 1000.7 | 996.1 | 991.1 | 987.1 | 982.1
x2 = 0.7721 | 1.8e-06 | 1.62e-06 | 1.44e-06 | 1.39e-06 | 1.22e-06 | 992.5 | 987.9 | 982.8 | 978.6 | 973.6
x2 = 0.813 | 1.57e-06 | 1.42e-06 | 1.28e-06 | 1.23e-06 | 1.09e-06 | 984.5 | 979.7 | 974.5 | 970.3 | 965.2
x2 = 0.8531 | 1.38e-06 | 1.25e-06 | 1.14e-06 | 1.1e-06 | 9.94e-07 | 976.4 | 971.5 | 966.3 | 962.1 | 956.9
x2 = 0.891 | 1.22e-06 | 1.12e-06 | 1.03e-06 | 9.92e-07 | 8.99e-07 | 968.5 | 963.6 | 958.3 | 954.1 | 948.9
x2 = 0.9288 | 1.08e-06 | 1e-06 | 9.23e-07 | 8.88e-07 | 8.16e-07 | 960.2 | 955.4 | 950 | 945.8 | 940.7
x2 = 0.9648 | 9.67e-07 | 9.04e-07 | 8.37e-07 | 8.06e-07 | 7.44e-07 | 952.2 | 947.6 | 942.3 | 937.9 | 932.6
